Results on one substance are retold here after patent US20090291887A1, “Proteins of the SDF-1-Family for the Manufacturing of a Medicament” (priority 2006, published 2009).

One experiment concerns DRG neurons. Put plainly: Myelin-inhibition assay (neurite growth of DRG neurons on laminin/myelin). Format: cell-based, rat. Here is the method: Spinal neurons from the dorsal root ganglia (DRG) of young rats (day 6 postnatal) were plated in parallel on culture substrates coated with either poly-D-lysine (PDL)/laminin (13 μg/ml) or PDL/laminin (13 μg/ml)+myelin (200 ng/culture). The myelin preparation has been obtained from rat brain by biochemical fractionation and employed as a suspension for coating the culture dishes.
The images shown in FIGS. 1-3 were recorded by immunofluorescence microscopy with PAM (panaxonal marker/neurofilament) antibody, and the visualization was effected by fluorescent dye (Alexa).

The test system of experiment [1] is Ser-133 phosphorylated CREB in DRG neurons. Put plainly: PhosphoCREB assay. In kind it is cell-based, rat. Particulars: P6 DRG neurons; 200 ng/ml; versus untreated cultures (FIG. 5). Here is the method:
Determination of Ser-133 phosphorylated CREB was performed on glass coverslips coated with PDL (1 mg/ml, Sigma) and laminin (13 μg/ml, Sigma). Dissociated DRGs were plated at a density of 5×10^4 cells/cm2 and incubated in DMEM containing 10% fetal bovine serum, nerve growth factor-2.5S, penicilline/streptomycine, and 5′-fluoro-2′-desoxyuridine for 24 h. Cells were stimulated by application of either 200 ng/ml SDF-1a/CXCL12 or 6 μM forskolin (Sigma), respectively, for 1-120 min. Samples were fixed with […] and stained for phophoCREB. Nuclei of P6 DRG neurons were stained with DAPI. For quantitative analysis of phosphoCREB-immunoreactivity, 30 pictures per coverslip were taken randomly at 20× magnification, and the number of neurons displaying phosphoCREB-positive nuclei as well as the total number of neurons were determined.

A further experiment concerns CST-lesioned adult rats. Put plainly: Rat model of spinal cord transection, CST axon sprouting (BDA tracing). In kind it is in vivo.

Protocol for CST-lesioned adult rats: The dura was opened at the thoracic level, and the vertebrae Th8 and Th9 were removed. The dorsal CST, dorsal columns and central canal were transected using a Scouten wire knife (Bilaney, Germany). Following the surgery, a silicon tube catheter was placed in the subdural space at 1 mm caudal to the lesion, and was connected to a mini-osmotic pump (Alzet) containing 200 μl of either SDF-1a/CXCL12 (10 μM in PBS) or Tris buffer. After the pump was fixed in place, the dura and overlying tissue were sutured, and the animals were allowed to recover. Application of either SDF-1a/CXCL12 or Tris buffer was carried out at a flow rate of 1 μl/h over a time period of 7 days. One week after lesion, the pump was removed in a second surgery.
A total volume of 2.3 μl biotinylated dextrane amine, BDA, (10%, Molecular Probes) was stereotactically injected into both hemispheres of the sensorimotor cortex. […] Briefly, animals were transcardially perfused with 40% PFA. The spinal cord was removed, postfixed in 4% PFA, and cryoprotected in sucrose (30%, Sigma) for 3-5 days. Spinal cord samples were shock frozen in methyl butane and cut into 20 μm thick sagittal cryostat slices. Sections were collected onto Histobond coated glass slides (Menzel, Germany). […] Briefly, sections were washed in PBS followed by incubation with avidin-Oregon (1:1000, in PBS) at 4° C. over night. […]

For SDF-1α, the “myelin-associated inhibition of neurite growth” value in the experiment with DRG neurons (DRG neurons on PDL/laminin + myelin, SDF-1 Alpha 200 ng/ml (FIG. 3)) is “essentially neutralized”. Further, the “neutralization of myelin inhibition, quantitative evaluation” value in the experiment on DRG neurons (FIG. 4, dose dependence) is reported as “dose-dependent neutralization”. For the same substance, in the experiment with DRG neurons (concentration of 500 ng of SDF-1/ml), the “myelin-induced inhibition of the neurite growth of DRG neurons in vitro” value was “neutralized completely”. The “proportion of nuclei displaying phosphoCREB-immunoreactivity” value in experiment [1] is “significantly increased”. Besides, the “animals that displayed extensive sprouting” value in the experiment on CST-lesioned adult rats (SDF-1a infusion, none out of three Tris buffer-infused rats) is recorded as “Two out of three”. Moreover, in the experiment with CST-lesioned adult rats (subdural infusion by mini-osmotic pump, 10 μM, 1 μl/h, 7 days, versus Tris buffer (FIG. 6)), the “sprouting of BDA-labelled CST axons within the proximal stump” value is “enhanced sprouting”.
